Details of this series: species or system patient. To be noted: in vivo. As to the method:
An ATP standard reagent was prepared by dissolving sodium salt of ATP in 25 mM HEPES buffer (pH7.75) at a concentration of 2×10^−6M.
Two-hundreds μl of a urine sample obtained from a patient suffering from renal dysfunction who received cisplatin administration was added and reacted with 200 μl of the ATP standard reagent prepared as described above at 37° C. for 30 minutes.
The solution was 10-fold diluted with 20 mM phosphate buffer (pH7.5), and 200 μl of the diluted solution was transferred into a test tube for ATP measurement. Then, 100 μl of luciferin-luciferase luminescent reagent which had been prepared by dissolving the freeze-dried luminescent reagent (included in ATP assay kit “CheckLite™” available from Kikkoman Corporation) in a solution for dissolving the reagent (also included in the kit) was added to the solution in the tube. The luminescent level based on the ATP level remaining after the reaction was immediately determined using Lumitester K-210.
On the other hand, the luminescent level corresponding to the ATP level in a urine sample before the reaction was determined in the same matter.
Diagnosis of renal dysfunction by ATP method was performed by calculating the ATP index (residual ATP %) according to the equation below and determining whether the subject is a patient with renal dysfunction S or a healthy individual R according to the following criteria. […]

In the case of `N.N.[Cl][Pt][Cl]` [cisplatin], the “residual ATP % in urine sample (ATP index)” value was “decreases to the minimum”.
